{
  "source": "patent US12161647B2",
  "about": "“Treating hearing loss” (Massachusetts Eye and Ear Infirmary, priority 2012, dated 2024)",
  "key": {"[1]": {"system": "noise-damaged cochlea", "assay": "Hair cell number after systemic LY411575 in noise-damaged mice", "type": "in vivo, mouse", "conditions": "oral 50 mg/kg for 5 d", "method": "(§1) 4-week-old mice were exposed free-field, awake and unrestrained, in a small reverberant chamber (22). Acoustic trauma was produced by a 2 h exposure to an 8-16 kHz octave band noise presented at 116 dB SPL. The exposure stimulus was generated by a custom white-noise source, filtered (Brickwall Filter with a 60 dB/octave slope), amplified (Crown power amplifier), and delivered (JBL compression driver) through an exponential horn fitted securely to a hole in the top of a reverberant box.\nFor systemic administration, LY411575 (50 mg/kg) dissolved in 0.5% (wt/vol) methylcellulose (WAKO) was injected orally once daily for 5 consecutive d. Hearing was measured by ABR at 1 d before, 2 d, 1, 2 week, 1, 2 and 3 months after noise exposure.\n(§2) For collection of mature mouse cochleae, after being deeply anesthetized with ketamine and xylazine, the mice were transcardially perfused with 0.01 M phosphate buffer (pH 7.4) containing 8.6% sucrose, followed by fixative consisting of freshly depolymerized 4% paraformaldehyde in 0.1 M phosphate buffer (pH 7.4). […] Primary antibodies were detected with secondary antibodies conjugated with Alexa 488, 568, and 647 (Molecular Probes) and viewed by confocal fluorescence microscopy (TCS SP5, Leica). […]\nCell counting for spheres was performed with MetaMorph software. The cell number was determined from DAPI- or Hoechst-positive nuclei. […]"}, "[2]": {"system": "deafened mature cochlea", "assay": "Hair cell and supporting cell counts in deafened mature cochlea after round window administration", "type": "in vivo, mouse", "method": "as §1\n4-week-old mice weighing 12 to 16 g were used. Before surgery, the animals were anesthetized with ketamine (20 mg/kg, i.p.) and xylazine (100 mg/kg, i.p.), and an incision was made posterior to the pinna near the external meatus after local administration of lidocaine (1%). The otic bulla was opened to approach the round window niche. The end of a piece of PE 10 tubing (Becton Dickinson) was drawn to a fine tip in a flame and gently inserted into the round window niche. LY411575 was dissolved in DMSO and diluted 10-fold in polyethylene glycol 400 (Sigma) to a final concentration of 4 mM. This solution (total volume 1 μl) was injected into the round window niche of the left ear. Polyethylene glycol 400 with 10% DMSO was injected into the right ear as a control. The solution was administered for 2 min. This approach is presently used clinically (e.g. transtympanic injection of steroids for sudden hearing loss and gentamicin for severe balance disorders) and has the advantage of sparing the […] but still taking advantage of the local route provided by the round window membrane for delivery of drug into the inner ear (50). Gelatin was placed on the niche to maintain the solution, and the wound was closed.\nas §2, with “7.4). After decapitation, the temporal bones were removed and immediately placed in the same fixative at 4° C. Small openings were made at the round window, oval window, and apex of the cochlea.” for “7.4).”\nCell counting for spheres was performed with MetaMorph software. The cell number was determined from DAPI- or Hoechst-positive nuclei. […] For explants, inner hair cells, outer hair cells, and supporting cells in the outer hair cell region were counted on cochlear whole mounts. […]"}},
  "data": [
    {"compound": "C[C@H](NC(=O)[C@@H](O)c1cc(F)cc(F)c1)C(=O)N[C@@H]1C(=O)N(C)c2ccccc2-c2ccccc21", "note": "[LY411575, N-2((2S)-2-(3,5-difluorophenyl)-2-hydroxyethanoyl)-N1-((7S)-5-methyl-6-oxo-6,7-dihydro-5H-dibenzo[b,d]azepin-7-yl)-l-alaninamide]", "values": [
      {"measurement": "outer hair cell numbers", "setting": "[1]", "result": "increased"},
      {"measurement": "numbers of inner hair cells", "setting": "[2]; 3 months, treated group", "result": "no significant changes"},
      {"measurement": "number of outer hair cells compared to carrier-treated contralateral ear", "setting": "[2]; 3 months, 8-16 kHz, p<0.05", "result": "increased"},
      {"measurement": "number of supporting cells in the outer hair cell region compared to carrier-treated ear", "setting": "[2]; 3 months, 8 and 11.3 kHz areas, p<0.05", "result": "decreased significantly"},
      {"measurement": "outer hair cells in the most basal regions", "setting": "[2]; above 22 kHz, with and without LY411575", "result": "completely absent"}
    ]}
  ]
}
